Data set [1] has as its system EphA4 Fc. Kind of data set: ELISA measuring inhibition of ephrin-A5 AP binding to immobilized EphA4 Fc. Set-up: species or system human or mouse. As to conditions: ELISA inhibition of EphA4-ephrin-A5 interaction. Background: In an ELISA, binding on a coated surface is turned into a signal by an enzyme label.
A short description of data set [2]: Solubility of lipidated compounds. The class given is physicochemical.
The nature of data set [3]: In vivo half-life: active compound remaining in mouse blood, deduced from apparent IC50 of plasma in the EphA4-ephrinA5 ELISA. As to conditions: mouse, in vivo, mouse; for blood concentration: 0.8 mg/mouse. How it is done:
To examine the persistence of compounds in the blood circulation, an approach was devised to determine the concentration of compound in mouse blood by taking advantage of the ELISA measuring inhibition of EphA4-ephrinA5 interaction.
Lipidated compounds dissolved in DMSO were diluted in […] PBS (to a 5% final DMSO concentration) or in […] PBS supplemented with 20 or 40 mg/mL BSA or 6.5 mM methyl-β-cyclodextrin for intravenous or intraperitoneal injection. Neutral pH of the compound solution was verified before injection. PEGylated compounds were dissolved in […] PBS before intraperitoneal injection. Peptides were sterile filtered before administration. Blood from each mouse was collected at 3 different time points after compound injection, the first 2 times by retro-orbital bleeding and the third time by terminal cardiac bleeding under deep anesthesia. Red blood cells were removed by centrifugation from blood treated with heparin and the resulting plasma was frozen in aliquots.
For each time point, a dose-response curves by measuring inhibition of EphA4-ephrinA5 binding at different plasma dilutions was obtained.

Data set [4] relates to EphA4 Fc. In words: ELISA inhibition of ephrin-A5 AP binding to EphA4 Fc in the presence of HSA, BSA or methyl-β-cyclodextrin. As to conditions: presence vs absence of 40 mg/mL HSA, tested in parallel.
From the text: To determine whether albumin binding to the lipidated compounds affects their ability to bind EphA4, the effects of delipidated human serum albumin (HSA) on the inhibitory potency of some of the compounds were examined.
Another data set addresses T1, EphA4 (Homo sapiens, UniProt P54764).
T1 construct: expressed in transfected cells; host or cells: HEK-EphA4 cells (immortalized cells stably transfected)
In words: EphA4 Y596 phosphorylation (activation) in cells stimulated with ephrinA5-Fc. The data set is classed as cell-based. As to conditions: EphA4 tyrosine phosphorylation in cells stimulated with ephrin-A5. How it is done: Immortalized cells stably transfected to express FLAG-tagged EphA4 were cultured at 37° C. in Dulbecco's Modified Eagle Medium (DMEM; #10-013-CV, Corning/Thermo Fisher Scientific) containing 10% fetal bovine serum (FBS) with 1% antibiotic-antimycotic solution (#30-004-Cl, Corning). To assess inhibition of EphA4 activation by compounds in cells, the cells were plated in 48-well plates.
For ELISAs, high binding capacity polystyrene 96-well plates were coated overnight at 4° C. with 1 μg/mL goat anti-FLAG antibody (#F3165, Sigma-Aldrich) in 50 μL/well borate buffer (0.1 M boric acid, 0.1 M Na borate, pH 8.7). […] OD450 was then measured.

Several values for one entry are separate records, joined by “and”; a condition that tells them apart may be missing. Equal entries are not always repeated. Where two headings read alike, the source gives them in different places.

T1 sequence (P54764 20-986, species assumed): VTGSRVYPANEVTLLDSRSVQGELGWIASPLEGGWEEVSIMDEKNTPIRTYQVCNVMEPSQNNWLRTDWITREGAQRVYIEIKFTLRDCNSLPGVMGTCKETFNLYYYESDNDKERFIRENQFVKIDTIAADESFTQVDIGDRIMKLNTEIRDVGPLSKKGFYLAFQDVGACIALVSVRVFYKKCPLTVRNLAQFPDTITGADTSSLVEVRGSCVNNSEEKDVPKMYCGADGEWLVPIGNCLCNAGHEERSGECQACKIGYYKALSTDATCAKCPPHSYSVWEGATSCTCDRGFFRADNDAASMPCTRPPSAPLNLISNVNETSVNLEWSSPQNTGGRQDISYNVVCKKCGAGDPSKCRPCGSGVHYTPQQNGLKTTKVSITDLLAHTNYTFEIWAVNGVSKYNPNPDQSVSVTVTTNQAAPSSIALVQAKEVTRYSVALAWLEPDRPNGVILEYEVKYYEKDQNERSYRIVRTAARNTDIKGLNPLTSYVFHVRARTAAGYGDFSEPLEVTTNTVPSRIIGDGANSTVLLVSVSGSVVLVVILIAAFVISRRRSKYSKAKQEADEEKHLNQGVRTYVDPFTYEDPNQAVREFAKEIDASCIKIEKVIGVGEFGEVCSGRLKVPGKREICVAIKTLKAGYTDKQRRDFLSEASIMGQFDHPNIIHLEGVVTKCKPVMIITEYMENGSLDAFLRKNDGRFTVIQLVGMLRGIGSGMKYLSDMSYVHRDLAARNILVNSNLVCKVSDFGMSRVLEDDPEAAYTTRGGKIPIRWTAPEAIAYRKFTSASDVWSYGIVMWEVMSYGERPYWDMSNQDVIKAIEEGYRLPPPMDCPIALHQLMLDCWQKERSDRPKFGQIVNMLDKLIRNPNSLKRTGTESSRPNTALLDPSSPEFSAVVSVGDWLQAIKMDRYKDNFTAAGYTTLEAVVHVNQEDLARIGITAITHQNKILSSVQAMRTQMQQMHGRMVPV

Turning to `CCCCCCCCCCCC(=O)N[C@@H](CCC(=O)N[C@@H](CCC(=O)NCCCC[C@H](NC(=O)CNC(=O)CNC(=O)[C@@H]1CSSC[C@H](NC(=O)[C@H](Cc2ccc(O)cc2)NC(=O)[C@@H]2CCCN2C(=O)CCN)C(=O)N[C@@H](C(C)C)C(=O)N[C@@H](Cc2ccc(O)cc2)C(=O)N[C@@H](CCCNC(=N)N)C(=O)NCCC(=O)N[C@@H](CO)C(=O)N[C@@H](Cc2c[nH]c3ccccc23)C(=O)N[C@@H](CO)C(=O)N1)C(=O)NCC(N)=O)C(=O)O)C(=O)O` [Compound 15], in the data set on EphA4 Fc [1], the “potency compared with APY-d3” value is “comparable to APY-d3”. The IC50 on EphA4 Fc [1] (read-out: IC50 (approximate)) was ~0.05 µM and ~0.03 µM. Moreover, the “solubility” value in data set [2] was “acceptable solubility”. For the same compound, the half-life in data set [3] (ip, IP (intraperitoneal administration), read-out: In vivo half-life (converted)) is 30 to 60 min; in data set [3] (read-out: t1/2 in mouse circulation), approximately 40 min. Besides, in the data set with EphA4 Fc [4], the “effect of HSA on potency” value is “dramatically decreased”.
“[Cyc (4,12)] H2N-(βA)PYCVYR(βA)SWSC(Ahx)(Ahx)(Ahx)(Pra/mPEG30-triazole)-OH (XPYCVYRXSWSCXXX; non-natural residues; cyclised or stapled) [APY-d3-PEG4]”: the “t1/2 in mouse circulation” value in data set [3] is approximately 660 min. Moreover, the blood concentration is approximately 9 µM in data set [3] (ip); approximately 3 µM in data set [3] (ip, 20 h); approximately 0.4 µM in data set [3] (ip, 48 h). The “inhibitory potency lower than that of APY-d3” value with EphA4 was 2-3 fold.

A word on the IC50: it is the midpoint of a concentration-inhibition curve.
